Active and inactive are the calls of the source. The calls are words filed in the database; no cut-off is given here.
How the values were obtained:
[1] = biological target: von Hippel-Lindau disease tumor suppressor/Polymerase basic protein 1 (Influenza A virus (strain A/Puerto Rico/8/1934 H1N1)) (UniProt P03431+P40337); test: PROTAC activity at Influenza A virus A/WSN/33(H1N1) flag tagged Polymerase basic protein 1/VHL (unknown origin) expressed in HEK293T cells assessed as degradation of PB1 expression at 10 ug/ml incubated for 24 hrs by Western blotting analysis; assay type: cell-based; conditions: dose 10.0 µg/ml
Sequence of von Hippel-Lindau disease tumor suppressor/Polymerase basic protein 1 (Influenza A virus (strain A/Puerto Rico/8/1934 H1N1)) (P03431 whole entry, looked up): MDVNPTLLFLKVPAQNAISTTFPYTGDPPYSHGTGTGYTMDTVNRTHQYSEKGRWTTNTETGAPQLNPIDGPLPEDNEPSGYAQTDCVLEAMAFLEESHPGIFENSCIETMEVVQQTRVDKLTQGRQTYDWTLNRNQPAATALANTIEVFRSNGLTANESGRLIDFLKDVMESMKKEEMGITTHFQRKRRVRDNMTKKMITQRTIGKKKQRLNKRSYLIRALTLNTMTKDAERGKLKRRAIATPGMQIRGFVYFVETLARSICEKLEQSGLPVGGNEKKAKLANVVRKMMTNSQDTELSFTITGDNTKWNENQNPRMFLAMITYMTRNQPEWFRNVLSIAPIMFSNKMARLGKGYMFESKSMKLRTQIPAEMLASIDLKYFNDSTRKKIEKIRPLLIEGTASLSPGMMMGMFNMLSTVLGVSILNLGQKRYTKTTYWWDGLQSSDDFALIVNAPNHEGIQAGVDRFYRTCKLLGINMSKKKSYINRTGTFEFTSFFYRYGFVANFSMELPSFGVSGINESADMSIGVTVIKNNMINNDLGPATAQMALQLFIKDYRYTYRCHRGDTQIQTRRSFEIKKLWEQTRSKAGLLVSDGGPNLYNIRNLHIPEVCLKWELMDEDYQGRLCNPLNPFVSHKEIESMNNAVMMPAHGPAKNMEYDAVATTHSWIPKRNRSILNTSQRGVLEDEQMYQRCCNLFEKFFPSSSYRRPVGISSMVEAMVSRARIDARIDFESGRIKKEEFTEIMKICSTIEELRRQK
Sequence of von Hippel-Lindau disease tumor suppressor/Polymerase basic protein 1 (Influenza A virus (strain A/Puerto Rico/8/1934 H1N1)) (P40337 whole entry, looked up): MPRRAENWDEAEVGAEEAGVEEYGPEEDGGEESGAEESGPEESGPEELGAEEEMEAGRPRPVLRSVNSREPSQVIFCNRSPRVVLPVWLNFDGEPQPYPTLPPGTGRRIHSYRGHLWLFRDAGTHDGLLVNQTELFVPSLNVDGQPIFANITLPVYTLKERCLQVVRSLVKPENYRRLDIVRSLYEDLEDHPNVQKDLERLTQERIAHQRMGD

[2] = biological target: T1, von Hippel-Lindau disease tumor suppressor/Polymerase acidic protein (Influenza A virus (A/Puerto Rico/8/1934(H1N1))) (UniProt P03433+P40337); test: PROTAC activity at Influenza A virus A/WSN/33(H1N1) flag tagged Polymerase acidic protein/VHL (unknown origin) expressed in HEK293T cells assessed as degradation of PA expression at 10 uM by Western blotting analysis; assay type: cell-based; conditions: TDE = time-dependent effect
[3] = Stability in human plasma assessed as compound remaining measured after 15 mins by LC-MS/MS analysis; assay type: ADME, cell-free; conditions: read-out: Stability
[4] = biological target: T1, von Hippel-Lindau disease tumor suppressor/Polymerase acidic protein (Influenza A virus (A/Puerto Rico/8/1934(H1N1))); test: PROTAC activity at Influenza A virus A/WSN/33(H1N1) flag tagged Polymerase acidic protein/VHL (unknown origin) expressed in HEK293T cells assessed as degradation of PA expression at 5 uM incubated for 24 hrs in presence of proteasome inhibitor MG-132 by Western blotting analysis; assay type: cell-based
[5] = Cytotoxicity against dog MDCK cells assessed as reduction in cell viability incubated for 48 hrs by CCK-8 assay; assay type: toxicity, cell-based, Canis lupus familiaris
[6] = biological target: T1, von Hippel-Lindau disease tumor suppressor/Polymerase acidic protein (Influenza A virus (A/Puerto Rico/8/1934(H1N1))); test: PROTAC activity at Influenza A virus A/WSN/33(H1N1) flag tagged Polymerase acidic protein/VHL (unknown origin) expressed in HEK293T cells assessed as degradation of PA expression at 5 uM incubated for 24 hrs in presence of bortezomib by Western blotting analysis; assay type: cell-based
[7] = biological target: T1, von Hippel-Lindau disease tumor suppressor/Polymerase acidic protein (Influenza A virus (A/Puerto Rico/8/1934(H1N1))); test: PROTAC activity at Influenza A virus A/WSN/33(H1N1) flag tagged Polymerase acidic protein/VHL (unknown origin) expressed in HEK293T cells assessed as degradation of PA expression at 5 uM incubated for 24 hrs in presence of chloroquine by Western blotting analysis; assay type: cell-based
[8] = Binding affinity to Influenza A virus A/WSN/33(H1N1) flag tagged Polymerase acidic protein assessed as dissociation constant incubated for 48 hrs by microscale thermophoresis assay; conditions: hek293t
[9] = Hepatic extraction ratio in dog liver microsomes preincubated for 5 mins followed by NADPH addition and measured for 45 mins by LC-MS analysis; assay type: ADME, Canis lupus familiaris, Microsome; conditions: time 50 min, read-out: ERH
[10] = biological target: T1, von Hippel-Lindau disease tumor suppressor/Polymerase acidic protein (Influenza A virus (A/Puerto Rico/8/1934(H1N1))); test: PROTAC activity at Influenza A virus A/WSN/33(H1N1) flag tagged Polymerase acidic protein/VHL (unknown origin) expressed in HEK293T cells assessed as degradation of PA expression at 0.02 to 10 uM incubated for 24 hrs by Western blotting analysis; assay type: cell-based; conditions: dose 0.02-10 µM
[11] = tested on: Influenza A virus; test: Anti-influenza activity against Influenza A virus H3N2 infected in HEK293T cells assessed as reduction in virus-induced cytopathic effect incubated for 48 hrs by CCK-8 assay; assay type: functional, organism-based; conditions: H3N2, HEK-293T
[12] = biological target: T2, von Hippel-Lindau disease tumor suppressor/Polymerase basic protein 2 (Influenza A virus (strain A/Puerto Rico/8/1934 H1N1)) (UniProt P40337+P03428); test: PROTAC activity at Influenza A virus A/WSN/33(H1N1) flag tagged Polymerase basic protein 2/VHL (unknown origin) expressed in HEK293T cells assessed as degradation of PB2 expression at 10 ug/ml incubated for 24 hrs by Western blotting analysis; assay type: cell-based; conditions: dose 10.0 µg/ml
T2 sequence (P03428 whole entry, looked up): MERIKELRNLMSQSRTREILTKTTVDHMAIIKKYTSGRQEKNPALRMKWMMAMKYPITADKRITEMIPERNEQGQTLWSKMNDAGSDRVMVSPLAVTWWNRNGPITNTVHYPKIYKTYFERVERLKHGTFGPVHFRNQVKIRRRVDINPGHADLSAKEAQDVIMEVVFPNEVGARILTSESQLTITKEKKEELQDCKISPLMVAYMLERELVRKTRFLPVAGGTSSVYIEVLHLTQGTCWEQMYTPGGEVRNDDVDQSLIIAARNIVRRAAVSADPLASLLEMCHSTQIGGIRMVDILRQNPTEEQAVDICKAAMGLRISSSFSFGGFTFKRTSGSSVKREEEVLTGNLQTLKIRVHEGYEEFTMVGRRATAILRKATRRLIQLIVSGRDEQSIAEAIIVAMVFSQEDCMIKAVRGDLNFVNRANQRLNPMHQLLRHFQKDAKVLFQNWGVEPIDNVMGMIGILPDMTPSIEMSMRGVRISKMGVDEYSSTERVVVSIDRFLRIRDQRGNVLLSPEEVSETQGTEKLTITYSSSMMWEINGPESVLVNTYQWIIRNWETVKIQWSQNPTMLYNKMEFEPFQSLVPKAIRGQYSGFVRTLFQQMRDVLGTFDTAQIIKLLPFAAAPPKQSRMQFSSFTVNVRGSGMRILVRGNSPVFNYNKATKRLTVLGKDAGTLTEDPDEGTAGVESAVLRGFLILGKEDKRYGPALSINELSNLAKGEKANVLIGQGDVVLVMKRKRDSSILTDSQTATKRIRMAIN
T2 sequence (P40337 whole entry, looked up): as the sequence (P40337 whole entry, looked up) above

[13] = tested on: Influenza A virus; test: Anti-influenza activity against Influenza A virus A/WSN/33(H1N1) infected in HEK293T cells assessed as reduction in virus-induced cytopathic effect incubated for 48 hrs by CCK-8 assay; assay type: functional, organism-based; conditions: HEK-293T
[14] = Hepatic clearance in human liver microsomes preincubated for 5 mins followed by NADPH addition and measured for 45 mins by LC-MS analysis; assay type: ADME, Microsome; conditions: time 50 min
[15] = biological target: T1, von Hippel-Lindau disease tumor suppressor/Polymerase acidic protein (Influenza A virus (A/Puerto Rico/8/1934(H1N1))); test: PROTAC activity at Influenza A virus A/WSN/33(H1N1) flag tagged Polymerase acidic protein/VHL (unknown origin) expressed in HEK293T cells assessed as degradation of PA expression at 5 uM incubated for 24 hrs by Western blotting analysis; assay type: cell-based
[16] = Hepatic extraction ratio in human liver microsomes preincubated for 5 mins followed by NADPH addition and measured for 45 mins by LC-MS analysis; assay type: ADME, Microsome; conditions: time 50 min, read-out: ERH
[17] = biological target: von Hippel-Lindau disease tumor suppressor/Polymerase acidic protein (Influenza A virus (A/Puerto Rico/8/1934(H1N1)), UniProt P03433+P40337); test: PROTAC activity at Influenza A virus A/WSN/33(H1N1) flag tagged Polymerase acidic protein/VHL (unknown origin) expressed in HEK293T cells assessed as degradation of PA expression incubated for 24 hrs by Western blotting analysis; assay type: cell-based
[18] = Intrinsic clearance in dog liver microsomes preincubated for 5 mins followed by NADPH addition and measured for 45 mins by LC-MS analysis; assay type: ADME, Canis lupus familiaris, Microsome; conditions: time 50 min, read-out: CLH
[19] = biological target: T2, von Hippel-Lindau disease tumor suppressor/Polymerase basic protein 2 (Influenza A virus (strain A/Puerto Rico/8/1934 H1N1)); test: PROTAC activity at Influenza A virus A/WSN/33(H1N1) flag tagged Polymerase basic protein 2/VHL (unknown origin) expressed in HEK293T cells assessed as degradation of PB2 expression at 1 ug/ml incubated for 24 hrs by Western blotting analysis; assay type: cell-based; conditions: dose 1.0 µg/ml
[20] = Stability in human plasma assessed as compound remaining measured after 60 mins by LC-MS/MS analysis; assay type: ADME, cell-free; conditions: read-out: Stability
[21] = biological target: T1, von Hippel-Lindau disease tumor suppressor/Polymerase acidic protein (Influenza A virus (A/Puerto Rico/8/1934(H1N1))); test: PROTAC activity at Influenza A virus A/WSN/33(H1N1) flag tagged Polymerase acidic protein/VHL (unknown origin) expressed in HEK293T cells assessed as degradation of PA expression at 10 uM incubated for 72 hrs by Western blotting analysis; assay type: cell-based
[22] = tested on: Influenza B virus; test: Anti-influenza activity against Influenza B virus Victoria/2/87 infected in HEK293T cells assessed as reduction in virus-induced cytopathic effect incubated for 48 hrs by CCK-8 assay; assay type: functional, organism-based; conditions: Victoria/2/87, HEK-293T
[23] = tested on: Influenza A virus; test: Anti-influenza activity against Influenza A virus A/PR/8/34 (H1N1) infected in MDCK cells assessed as inhibition of viral growth at 1 uM incubated for 48 hrs by luciferase assay relative to control; assay type: functional
[24] = biological target: T1, von Hippel-Lindau disease tumor suppressor/Polymerase acidic protein (Influenza A virus (A/Puerto Rico/8/1934(H1N1))); test: PROTAC activity at Influenza A virus A/WSN/33(H1N1) flag tagged Polymerase acidic protein/VHL (unknown origin) expressed in HEK293T cells assessed as degradation of PA expression at 10 uM incubated for 24 hrs by Western blotting analysis; assay type: cell-based
[25] = Intrinsic clearance in mouse liver microsomes preincubated for 5 mins followed by NADPH addition and measured for 45 mins by LC-MS analysis; assay type: ADME, Microsome; conditions: time 50 min, read-out: CLH
[26] = Half life in human liver microsomes preincubated for 5 mins followed by NADPH addition and measured for 45 mins by LC-MS analysis; assay type: ADME, Microsome; conditions: time 50 min
[27] = tested on: Enterovirus; test: Antiviral activity against Enterovirus CV-A16 infected in RD cells assessed as inhibition of viral replication incubated for 24 hrs by CCK-8 assay; assay type: functional, organism-based
[28] = Hepatic clearance in dog liver microsomes preincubated for 5 mins followed by NADPH addition and measured for 45 mins by LC-MS analysis; assay type: ADME, Canis lupus familiaris, Microsome; conditions: time 50 min

For `CC(C)(C)OC(=O)NCCCC[C@H](NC(=O)OC(C)(C)C)C(=O)NCCCCCCCC(=O)Nc1ccc(NC(=S)NC(=O)c2ccc(C(C)(C)C)cc2)cc1`, the Activity [1] was “inactive”, the Activity [2] was “Tde” and the remaining at 0.25 h [3] was 109%. The Activity [4] was “inactive”, the CC50 at 48 h [5] was > 200000 nM and the Activity [6] was “inactive”. For the same compound, the Activity [7] was “inactive”, the Kd [8] was 720 nM and the hepatic extraction ratio at 0.75 h [9] was 0.851. The Activity [10] was “Active”, the EC50 [11] was 36 nM and the Activity [12] was “inactive”. The EC50 [13] was 15 nM, the CLhep predicted [14] was 18 mL/min/kg and the Activity [15] was “Active”. For the same compound, the hepatic extraction ratio at 0.75 h [16] was 0.588, the DC50 [17] was 60 nM and the CLint scaled [18] was 177 mL/min/kg. The Activity [19] was “inactive”, the remaining at 1 h [20] was 96.9% and the Activity [21] was “Active”. The EC50 [22] was 67 nM, the inhibition at 1 µM [23] was 96% and the Activity [24] was “Active”. The CLint scaled [25] was 170 mL/min/kg, the half-life [26] was 12.7 min and the Activity [27] was “Active”. The CLhep predicted [28] was 26.3 mL/min/kg.
